Data taken from PMC4505863 (ACS Chemical Neuroscience, 2014).

Key:
[1] = target: 5-HT1B (Homo sapiens, UniProt P28222); assay: PDSP screening affinity 5-HT1B; format: binding; conditions: 5-HT1B affinity
[2] = target: T1, 5-HT1A (Homo sapiens, UniProt P08908); assay: PDSP screening affinity 5-HT1A; format: binding; conditions: 5-HT1A affinity
T1 sequence (P08908 1-422): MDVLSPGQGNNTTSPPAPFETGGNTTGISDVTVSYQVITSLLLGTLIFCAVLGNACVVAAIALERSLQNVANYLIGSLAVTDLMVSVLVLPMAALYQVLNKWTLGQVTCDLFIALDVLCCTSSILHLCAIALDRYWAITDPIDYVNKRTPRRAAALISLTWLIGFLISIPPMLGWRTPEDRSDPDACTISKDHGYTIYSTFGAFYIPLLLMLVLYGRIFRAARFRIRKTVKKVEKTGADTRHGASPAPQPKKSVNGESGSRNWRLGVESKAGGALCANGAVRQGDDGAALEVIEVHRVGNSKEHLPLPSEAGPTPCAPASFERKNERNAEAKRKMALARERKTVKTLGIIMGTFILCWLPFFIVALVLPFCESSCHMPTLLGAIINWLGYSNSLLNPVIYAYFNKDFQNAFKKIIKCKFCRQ

[3] = target: T2, r5-HT2C (Rattus norvegicus, UniProt P08909); assay: Ca2+ mobilization assay; format: cell-based; conditions: for EC50: r5-HT2C EC50, Ca2+ mobilization; for Emax: read-out: r5-HT2C Emax
T2 sequence (P08909 33-460): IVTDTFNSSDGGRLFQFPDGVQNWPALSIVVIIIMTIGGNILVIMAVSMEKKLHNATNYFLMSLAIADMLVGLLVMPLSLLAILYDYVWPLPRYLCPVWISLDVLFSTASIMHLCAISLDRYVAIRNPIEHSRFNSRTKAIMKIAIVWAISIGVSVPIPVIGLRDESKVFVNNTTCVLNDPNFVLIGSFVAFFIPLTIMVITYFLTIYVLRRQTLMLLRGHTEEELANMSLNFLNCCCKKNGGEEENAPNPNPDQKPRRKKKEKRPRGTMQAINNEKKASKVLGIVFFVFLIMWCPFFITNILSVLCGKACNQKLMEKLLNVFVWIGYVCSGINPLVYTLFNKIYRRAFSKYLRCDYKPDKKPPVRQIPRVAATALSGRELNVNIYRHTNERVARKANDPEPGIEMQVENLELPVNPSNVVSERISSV

[4] = target: T3, human 5-HT2C receptor (Homo sapiens, UniProt P28335); assay: h5-HT2C affinity, antagonist radioligand [3H]mesulergine; format: binding
T3 sequence (P28335 33-458): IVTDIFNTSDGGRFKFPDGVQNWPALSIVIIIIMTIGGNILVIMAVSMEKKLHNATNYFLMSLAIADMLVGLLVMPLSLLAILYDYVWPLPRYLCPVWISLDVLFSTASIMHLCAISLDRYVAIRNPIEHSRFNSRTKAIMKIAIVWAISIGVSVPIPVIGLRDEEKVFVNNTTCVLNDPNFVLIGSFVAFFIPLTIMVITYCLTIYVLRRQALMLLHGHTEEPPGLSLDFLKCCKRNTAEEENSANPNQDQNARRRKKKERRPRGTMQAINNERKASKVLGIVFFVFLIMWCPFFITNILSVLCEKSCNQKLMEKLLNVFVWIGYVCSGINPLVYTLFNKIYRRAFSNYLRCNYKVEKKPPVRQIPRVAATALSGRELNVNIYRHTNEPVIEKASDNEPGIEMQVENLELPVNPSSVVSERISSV

[5] = target: T3, human 5-HT2C receptor; assay: h5-HT2C affinity, agonist radioligand [125I]DOI; format: binding
[6] = target: 5-HT7 (Homo sapiens, UniProt P34969); assay: PDSP screening affinity 5-HT7; format: binding; conditions: 5-HT7 affinity
Chain of 5-HT7 (P34969 whole entry): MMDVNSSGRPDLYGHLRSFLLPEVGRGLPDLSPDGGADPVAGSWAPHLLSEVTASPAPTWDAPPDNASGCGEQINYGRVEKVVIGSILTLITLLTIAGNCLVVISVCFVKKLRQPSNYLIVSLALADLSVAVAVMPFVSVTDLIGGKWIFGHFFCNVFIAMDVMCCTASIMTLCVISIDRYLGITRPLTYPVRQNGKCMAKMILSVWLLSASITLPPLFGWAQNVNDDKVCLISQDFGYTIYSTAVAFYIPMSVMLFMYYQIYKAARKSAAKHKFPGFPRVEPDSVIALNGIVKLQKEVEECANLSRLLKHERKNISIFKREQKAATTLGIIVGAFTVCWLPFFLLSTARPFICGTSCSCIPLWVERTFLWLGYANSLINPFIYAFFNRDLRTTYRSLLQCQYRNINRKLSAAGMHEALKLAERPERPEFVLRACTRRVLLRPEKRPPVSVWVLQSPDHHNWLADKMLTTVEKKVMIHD

[7] = target: T4, 5-HT3 (Homo sapiens, UniProt P46098); assay: PDSP screening affinity 5-HT3; format: binding
T4 sequence (P46098 24-478): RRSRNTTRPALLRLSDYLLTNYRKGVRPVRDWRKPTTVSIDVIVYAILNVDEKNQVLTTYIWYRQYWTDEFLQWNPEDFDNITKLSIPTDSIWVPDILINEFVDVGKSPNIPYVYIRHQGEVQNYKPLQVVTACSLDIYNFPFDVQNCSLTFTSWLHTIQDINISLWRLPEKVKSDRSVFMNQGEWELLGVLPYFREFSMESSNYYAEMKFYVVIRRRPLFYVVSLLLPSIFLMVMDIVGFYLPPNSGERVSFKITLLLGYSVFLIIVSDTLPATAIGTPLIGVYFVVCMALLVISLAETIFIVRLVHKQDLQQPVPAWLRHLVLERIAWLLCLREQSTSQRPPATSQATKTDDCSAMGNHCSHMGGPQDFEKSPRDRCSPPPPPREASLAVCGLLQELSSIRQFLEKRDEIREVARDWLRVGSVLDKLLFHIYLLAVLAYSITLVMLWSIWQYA

[8] = target: 5-ht1e (Homo sapiens, UniProt P28566); assay: PDSP screening affinity 5-ht1e; format: binding
Chain of 5-ht1e (P28566 whole entry): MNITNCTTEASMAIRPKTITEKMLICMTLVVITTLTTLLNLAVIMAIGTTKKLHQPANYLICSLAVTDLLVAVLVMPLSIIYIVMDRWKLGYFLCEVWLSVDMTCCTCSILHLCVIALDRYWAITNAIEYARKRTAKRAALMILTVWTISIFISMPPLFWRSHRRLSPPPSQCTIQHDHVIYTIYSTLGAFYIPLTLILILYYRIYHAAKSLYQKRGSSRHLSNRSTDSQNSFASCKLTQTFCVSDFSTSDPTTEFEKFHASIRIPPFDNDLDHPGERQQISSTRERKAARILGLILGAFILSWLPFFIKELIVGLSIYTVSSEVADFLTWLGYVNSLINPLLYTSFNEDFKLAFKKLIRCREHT

[9] = target: h5-HT2B (Homo sapiens, UniProt P41595); assay: Ca2+ mobilization assay; format: cell-based; conditions: for Emax: HEK293, read-out: h5-HT2B Emax; for EC50: h5-HT2B EC50, Ca2+ mobilization
Chain of h5-HT2B (P41595 whole entry): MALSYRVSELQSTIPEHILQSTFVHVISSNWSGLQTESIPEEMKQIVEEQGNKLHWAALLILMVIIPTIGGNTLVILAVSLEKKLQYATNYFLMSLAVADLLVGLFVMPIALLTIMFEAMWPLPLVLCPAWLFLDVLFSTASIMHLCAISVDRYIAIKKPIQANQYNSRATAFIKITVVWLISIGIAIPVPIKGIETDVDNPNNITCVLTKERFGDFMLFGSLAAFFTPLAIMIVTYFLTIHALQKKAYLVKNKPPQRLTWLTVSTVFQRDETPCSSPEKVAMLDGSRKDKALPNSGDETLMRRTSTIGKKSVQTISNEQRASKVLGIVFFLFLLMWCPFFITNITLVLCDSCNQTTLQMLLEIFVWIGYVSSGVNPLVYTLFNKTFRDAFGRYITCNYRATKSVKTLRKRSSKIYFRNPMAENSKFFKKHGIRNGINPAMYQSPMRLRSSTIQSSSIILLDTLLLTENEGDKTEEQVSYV

[10] = target: T5, h5-HT2C (Homo sapiens, UniProt P28335); assay: Ca2+ mobilization assay; format: cell-based; conditions: for Emax: HEK293, read-out: h5HT2C Emax; for EC50: h5HT2C EC50, Ca2+ mobilization
T5 sequence (P28335 33-458): T3 sequence (P28335 33-458)

[11] = target: 5-HT6 (Homo sapiens, UniProt P50406); assay: PDSP screening affinity 5-HT6; format: binding; conditions: 5-HT6 affinity
Chain of 5-HT6 (P50406 whole entry): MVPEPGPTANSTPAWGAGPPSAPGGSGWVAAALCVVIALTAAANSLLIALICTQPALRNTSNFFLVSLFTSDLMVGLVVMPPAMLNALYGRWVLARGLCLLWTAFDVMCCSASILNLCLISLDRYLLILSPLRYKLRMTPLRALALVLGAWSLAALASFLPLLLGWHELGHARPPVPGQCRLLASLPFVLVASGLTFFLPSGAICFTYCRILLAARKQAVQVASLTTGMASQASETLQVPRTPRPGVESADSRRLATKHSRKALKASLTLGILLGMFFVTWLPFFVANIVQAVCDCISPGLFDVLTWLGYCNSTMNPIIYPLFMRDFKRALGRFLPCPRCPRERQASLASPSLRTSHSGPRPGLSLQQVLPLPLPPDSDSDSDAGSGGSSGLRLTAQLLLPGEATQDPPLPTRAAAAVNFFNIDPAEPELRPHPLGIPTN

[12] = target: h5-HT2A (Homo sapiens, UniProt P28223); assay: Ca2+ mobilization assay; format: cell-based; conditions: for Emax: HEK293, read-out: h5-HT2A Emax, percentage of the maximum response to 5-HT
Chain of h5-HT2A (P28223 whole entry): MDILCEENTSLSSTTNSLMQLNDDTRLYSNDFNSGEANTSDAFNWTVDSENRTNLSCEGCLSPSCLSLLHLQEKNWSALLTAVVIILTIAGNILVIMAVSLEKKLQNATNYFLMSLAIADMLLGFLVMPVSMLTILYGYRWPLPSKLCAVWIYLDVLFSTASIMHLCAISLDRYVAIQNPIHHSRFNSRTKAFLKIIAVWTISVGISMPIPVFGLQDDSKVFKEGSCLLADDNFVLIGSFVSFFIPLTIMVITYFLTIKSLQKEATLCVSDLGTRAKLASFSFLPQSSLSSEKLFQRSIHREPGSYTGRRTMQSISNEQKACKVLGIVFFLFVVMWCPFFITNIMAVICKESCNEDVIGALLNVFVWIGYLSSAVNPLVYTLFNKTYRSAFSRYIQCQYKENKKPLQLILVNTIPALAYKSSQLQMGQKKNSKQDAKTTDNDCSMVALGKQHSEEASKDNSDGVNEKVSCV

[13] = target: 5-HT1D (Homo sapiens, UniProt P28221); assay: PDSP screening affinity 5-HT1D; format: binding
Chain of 5-HT1D (P28221 whole entry): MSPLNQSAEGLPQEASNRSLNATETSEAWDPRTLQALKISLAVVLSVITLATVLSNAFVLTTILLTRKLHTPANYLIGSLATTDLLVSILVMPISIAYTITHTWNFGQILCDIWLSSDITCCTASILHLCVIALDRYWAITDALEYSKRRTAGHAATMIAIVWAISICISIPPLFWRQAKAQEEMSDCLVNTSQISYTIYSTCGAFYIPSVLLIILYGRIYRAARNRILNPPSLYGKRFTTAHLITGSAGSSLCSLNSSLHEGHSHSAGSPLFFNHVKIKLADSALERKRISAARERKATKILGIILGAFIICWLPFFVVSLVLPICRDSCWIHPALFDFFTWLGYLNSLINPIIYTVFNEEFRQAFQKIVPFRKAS

[14] = target: T6, 5-HT2A receptor (Homo sapiens, UniProt P28223); assay: h5-HT2A affinity, agonist radioligand [125I]DOI; format: binding
T6 sequence (P28223 whole entry): as the sequence (P28223 whole entry) above

[15] = target: T6, 5-HT2A receptor; assay: h5-HT2A affinity, antagonist radioligand [3H]ketanserin; format: binding
[16] = target: r5-HT2A (Rattus norvegicus, UniProt P14842); assay: Ca2+ mobilization assay; format: cell-based; conditions: for EC50: r5-HT2A EC50, Ca2+ mobilization; for Emax: read-out: r5-HT2A Emax, percentage of the maximum response to 5-HT
Chain of r5-HT2A (P14842 whole entry): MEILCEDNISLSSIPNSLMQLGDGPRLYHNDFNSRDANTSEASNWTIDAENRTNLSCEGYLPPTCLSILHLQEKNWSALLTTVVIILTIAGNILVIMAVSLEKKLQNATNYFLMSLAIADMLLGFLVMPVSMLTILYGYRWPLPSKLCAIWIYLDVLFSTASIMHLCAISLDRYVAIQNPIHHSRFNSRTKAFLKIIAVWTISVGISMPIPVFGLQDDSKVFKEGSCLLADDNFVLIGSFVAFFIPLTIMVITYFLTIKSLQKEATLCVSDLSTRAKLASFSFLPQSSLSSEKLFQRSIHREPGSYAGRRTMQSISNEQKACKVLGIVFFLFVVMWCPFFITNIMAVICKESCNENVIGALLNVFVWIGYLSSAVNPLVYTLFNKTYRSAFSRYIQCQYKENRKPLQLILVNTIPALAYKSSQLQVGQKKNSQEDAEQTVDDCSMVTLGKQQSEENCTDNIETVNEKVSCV

[17] = target: 5-HT2B (Homo sapiens, UniProt P41595); assay: PDSP screening affinity 5-HT2B; format: binding
Chain of 5-HT2B (P41595 whole entry): as the sequence (P41595 whole entry) above

[18] = target: 5-ht5a (Homo sapiens, UniProt P47898); assay: PDSP screening affinity 5-ht5a; format: binding; conditions: 5-ht5a affinity
Chain of 5-ht5a (P47898 whole entry): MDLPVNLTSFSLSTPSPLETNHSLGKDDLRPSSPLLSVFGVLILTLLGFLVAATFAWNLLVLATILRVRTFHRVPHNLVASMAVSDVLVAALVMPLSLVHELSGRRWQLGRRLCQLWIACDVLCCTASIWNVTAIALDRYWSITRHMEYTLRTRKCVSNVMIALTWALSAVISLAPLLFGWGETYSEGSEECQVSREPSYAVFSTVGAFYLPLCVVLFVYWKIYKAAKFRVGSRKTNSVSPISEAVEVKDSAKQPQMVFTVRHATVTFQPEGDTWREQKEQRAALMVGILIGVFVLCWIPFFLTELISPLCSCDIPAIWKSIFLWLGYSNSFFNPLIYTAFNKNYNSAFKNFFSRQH

[19] = test system: Male C57BL/6J mice; assay: Mouse head twitch response; conditions: for activity in the HTR assay (active / inactive): doses up to 30 mg/kg

Chain of 5-HT1B (P28222 whole entry): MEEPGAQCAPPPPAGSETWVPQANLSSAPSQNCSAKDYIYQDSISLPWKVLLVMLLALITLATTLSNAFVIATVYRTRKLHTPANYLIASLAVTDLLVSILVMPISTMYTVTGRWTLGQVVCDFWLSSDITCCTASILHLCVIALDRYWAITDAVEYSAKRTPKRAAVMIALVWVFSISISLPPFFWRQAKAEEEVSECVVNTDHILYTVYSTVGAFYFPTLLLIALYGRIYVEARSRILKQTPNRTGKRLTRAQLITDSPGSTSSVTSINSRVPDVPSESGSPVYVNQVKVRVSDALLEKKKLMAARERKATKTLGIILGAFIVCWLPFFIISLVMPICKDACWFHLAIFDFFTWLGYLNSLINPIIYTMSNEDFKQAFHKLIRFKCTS

Structure (SMILES)	Ki [1] [nM]	Ki [2] [nM]	EC50 [3] [nM]	Emax [3] [%]	Ki [4] [nM]	Ki [5] [nM]	Ki [6] [nM]	Ki [7] [nM]	Ki [8] [nM]	Emax [9] [%]	EC50 [9] [nM]	Emax [10] [%]	EC50 [10] [nM]	Ki [11] [nM]	EC50 [12] [nM]	Emax [12] [%]	Ki [13] [nM]	Ki [14] [nM]	Ki [15] [nM]	EC50 [16] [nM]	also measured
COc1cccc(CNCCc2cc(OC)c(I)cc2OC)c1 [Compound 4a, N-(3-Methoxybenzyl)-2-(4-iodo-2,5-dimethoxyphenyl)ethan-1-amine]	3230	925	133	91 ± 3	4.17	0.126	583	> 10000	1710	≤ 15	38	41 ± 6	33.8	67	28	71.6 ± 0.9	439	0.269	1.55	27	Emax [16]: 51.7 ± 0.9%; Ki ([17]; 5-HT2B affinity): 4.6 nM; Ki [18]: 57 nM; max counts ([19]; HTR counts, SC): 11.4; ED50 ([19]; Mus musculus, sc, read-out: ED50 mg/kg (95% CI), mouse head twitch): 4.34 mg/kg; activity in the HTR assay (active / inactive) ([19]; SC): active; magnitude of peak effect × vehicle ([19]; SC, mouse head twitch): 5.7 × vehicle; maximally effective dose ([19]; SC, mouse head twitch): 30 mg/kg
COc1ccc(CNCCc2cc(OC)c(I)cc2OC)cc1 [Compound 4b, N-(4-Methoxybenzyl)-2-(4-iodo-2,5-dimethoxyphenyl)ethan-1-amine]	1590	1060	132	97 ± 2	14.1	3.63	1570	> 10000	1280	38 ± 2	87	50 ± 7	43.2	75	60	74.1 ± 0.8	325	0.7	11.7	50	Emax [16]: 53.8 ± 0.9%; Ki ([17]; 5-HT2B pKi ± SEM): 16.6 nM; Ki [18]: 1020 nM; activity in the HTR assay (active / inactive) ([19]; SC): None of the phenethylamines or tryptamines with 4-substituted N-benzyl groups, 4b, 4e, 5c, or 5f, was active
